Drawing on patent publication US8076329B2, “Histamine H3-receptor ligands and their therapeutic applications” (Bioprojet, priority 2005, dated 2011), this text covers IC50 for 27 compounds.

Several values for one entry are separate records, joined by “and”; a condition that tells them apart may be missing. Equal values may be shown once. Read-outs that look alike come from different tables or passages of the source.

One data set addresses CYP2D6 (Homo sapiens, UniProt P10635). Description: Cytochrome inhibition, fluorometric microtiter plate assay. The data set is classed as in vitro ADME. Conditions: human recombinant CYP2D6, substrate AMMC, compounds of the invention. Here is the method:
(§1) The ability of drug in human to inhibit the catalytic activity of cytochrome P-450 isoforms was assayed using microtiter plate-based, fluorometric assays for the activities of the five human major CYP forms. Inhibition potential was determined in vitro after incubation of fluorescent model substrates over various incubation time with human recombinant cytochrome isoforms in the absence or in presence of increasing concentrations of test molecules (from 1 nM to 100 μM), in comparison with specific CYP isoform inhibitors.
(§2) Incubation of drug was carried out at 37° C.±0.5° C. under agitation in the presence of human recombinant cytochrome P-450 isoforms and a NADPH generating system. The incubation conditions for each cytochrome isoform were as follows: […]

A further data set has as its target CYP3A4 (Homo sapiens, UniProt P08684). The data set is described as above. Type of data set: in vitro ADME. To be noted: human recombinant CYP3A4, substrate BFC, compounds of the invention. As for the experimental part:
as §1, §2

Setting [1] is: CYP2D6 cytochrome inhibition (IC50, concentrations in μM for 50% inhibition).
Setting [2] is: CYP3A4 cytochrome inhibition (IC50, concentrations in μM for 50% inhibition).
Setting [3] is: read-out: CYP2D6 cytochrome inhibition (IC50, concentrations in μM for 50% inhibition).
The mark [4] stands for this setting: read-out: CYP3A4 cytochrome inhibition (IC50, concentrations in μM for 50% inhibition).

Sequence of CYP3A4 (P08684 whole entry): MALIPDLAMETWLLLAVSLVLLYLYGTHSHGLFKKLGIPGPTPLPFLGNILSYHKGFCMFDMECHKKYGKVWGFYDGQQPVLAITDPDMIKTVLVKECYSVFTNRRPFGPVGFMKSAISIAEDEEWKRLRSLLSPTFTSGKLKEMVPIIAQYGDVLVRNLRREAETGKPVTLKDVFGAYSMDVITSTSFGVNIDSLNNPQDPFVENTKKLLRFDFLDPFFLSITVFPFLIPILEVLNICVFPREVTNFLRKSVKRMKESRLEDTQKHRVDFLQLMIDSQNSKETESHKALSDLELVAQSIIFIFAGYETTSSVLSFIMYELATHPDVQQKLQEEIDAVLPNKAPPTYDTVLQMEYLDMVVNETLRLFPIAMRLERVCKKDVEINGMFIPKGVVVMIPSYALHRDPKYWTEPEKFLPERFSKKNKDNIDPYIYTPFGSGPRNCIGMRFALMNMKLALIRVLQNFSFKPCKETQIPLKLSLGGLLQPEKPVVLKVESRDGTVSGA
Sequence of CYP2D6 (P10635 whole entry, canonical isoform): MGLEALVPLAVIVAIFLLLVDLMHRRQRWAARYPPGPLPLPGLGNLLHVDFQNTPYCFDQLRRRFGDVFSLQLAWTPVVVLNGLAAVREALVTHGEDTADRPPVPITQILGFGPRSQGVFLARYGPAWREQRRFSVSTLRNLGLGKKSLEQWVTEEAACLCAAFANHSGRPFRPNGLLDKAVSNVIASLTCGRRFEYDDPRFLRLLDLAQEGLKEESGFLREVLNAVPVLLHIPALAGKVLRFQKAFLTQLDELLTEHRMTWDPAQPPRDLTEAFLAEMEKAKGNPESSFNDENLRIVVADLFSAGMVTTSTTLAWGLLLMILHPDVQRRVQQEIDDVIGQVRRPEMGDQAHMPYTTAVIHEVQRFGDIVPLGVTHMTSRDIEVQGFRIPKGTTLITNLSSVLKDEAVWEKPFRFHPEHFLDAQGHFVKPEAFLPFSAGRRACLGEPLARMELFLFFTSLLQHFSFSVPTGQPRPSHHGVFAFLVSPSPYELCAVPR

As for `C[C@@H]1C[C@@H](C)CN(CCCOc2ccc(-c3ccccc3)cc2)C1` (relative stereo) [Example 22, trans-1-{3-[(biphenyl-4-yl)oxy]propyl}-3,5-dimethylpiperidine], the results for the IC50 at CYP2D6 (setting [1]) and on CYP3A4 (setting [2]) were 13 µM and 3 µM, respectively.

Regarding `C[C@H]1CCCN(CCCOc2ccc(-c3ccncc3)cc2)C1` [Example 39, (3S)-3-methyl-1-{3-[4-(4-pyridyl)phenoxy]propyl}piperidine], the IC50 is 6 µM on CYP2D6 (setting [1]) and 11 µM on CYP3A4 (setting [2]).

In the case of `C[C@H]1CCCN(CCCOc2ccc(-c3cc[n+](C)cc3)cc2)C1` [Example 57, 1-methyl-4-(4-{3-[(3S)-3-methylpiperidin-1-yl]propoxy}phenyl)pyridinium], the IC50 at CYP2D6 (setting [1]) and at CYP3A4 (setting [2]) was > 10 µM in each case.

As to `c1cc(-c2ccc(OCCCN3CCOCC3)cc2)ccc1OCCCN1CCCCC1` [Example 36, 4-(3-{[4′-(3-piperidinopropoxy)biphenyl-4-yl]oxy}propyl)morpholine], the values for the IC50 at CYP2D6 (setting [1]) and at CYP3A4 (setting [2]) were > 10 µM and 3 µM, respectively.

For `C[C@@H]1C[C@@H](C)CN(CCCOc2ccc(Oc3ccccc3)cc2)C1` (relative stereo) [Example 14, trans-1-{3-[4-(phenoxy)phenoxy]propyl}-3,5-dimethylpiperidine], the IC50 at CYP2D6 (setting [1]) and on CYP3A4 (setting [2]) was > 10 µM in each case.

With `C[C@H]1C[C@H](C)CN(CCCOc2ccc(C(=O)N3CCCC3)cc2)C1` (relative stereo) [Example 2, trans-1-{3-[4-(N,N-tetramethylenecarbamoyl)phenoxy]propyl}-3,5-dimethylpiperidine], the IC50 at CYP2D6 (setting [1]) and on CYP3A4 (setting [2]) was > 10 µM each time.

With `C=CCC(O)(CC=C)c1ccc(OCCCN2CCCCC2)cc1` [Example 9, 1-{3-[4-(1-hydroxy-1-allylbut-3-enyl)phenoxy]propyl}piperidine], the results for the IC50 at CYP2D6 (setting [1]) and at CYP3A4 (setting [2]) were 8 µM and 3 µM, respectively.

For “1-{3-[4-(cis-4-dimethylaminocyclohex-1-yl)phenoxy]propyl}piperidine, dioxalate and 1-{3-[4-(trans-4-dimethylaminocyclohex-1-yl)phenoxy]propyl}-piperidine, dioxalate [Example 18]”, the IC50 was > 10 µM at CYP2D6 (setting [3]); 43 µM and 50 µM at CYP3A4 (setting [4]).

For the compound `CN1CCC(COCc2ccc(OCCCN3CCCCC3)cc2)CC1` [Example 68, 1-methyl-4-[4-(3-piperidinopropoxy)benzyloxymethyl]piperidine], the IC50 at CYP2D6 (setting [1]) and on CYP3A4 (setting [2]) was > 10 µM throughout.

Regarding `c1cc(-c2ccc(OCCCN3CCCC3)cc2)ccc1OCCCN1CCCC1` [Example 38, di-1,1′-{(biphenyl-4,4′-diyl)bis[oxy(propan-1,3-diyl)]}pyrrolidine], the values for the IC50 on CYP2D6 (setting [1]) and on CYP3A4 (setting [2]) were > 10 µM and 30 µM, respectively.

For the compound `CN1CCN(c2ccc(-c3ccc(OCCCN4CCCCC4)cc3)cc2)CC1` [Example 46, 1-methyl-4-[4′-(3-piperidinopropoxy)biphenyl]piperazine], the IC50 at CYP2D6 (setting [1]) is > 100 µM; at CYP3A4 (setting [2]), 12 µM.

As for `C[C@@H]1C[C@@H](C)CN(CCCOc2ccc(C(C)(C)O)cc2)C1` (relative stereo) [Example 5, trans-1-{3-[4-(1-hydroxy-1-methylethyl)phenoxy]propyl}-3,5-dimethylpiperidine], the results for the IC50 on CYP2D6 (setting [1]) and on CYP3A4 (setting [2]) were > 10 µM and 67 µM, respectively.

Turning to `CN1CCC(OCc2ccc(OCCCN3CCCCC3)cc2)CC1` [Example 67, 1-methyl-4-[4-(3-piperidinopropoxy)benzyloxy]piperidine], the IC50 on CYP2D6 (setting [1]) and at CYP3A4 (setting [2]) was > 10 µM throughout.

As for `C[C@@H]1C[C@@H](C)CN(CCCOc2ccc(C3=NCCCC3)cc2)C1` (relative stereo) [Example 16, trans-6-{4-[3-(3,5-dimethylpiperidino)propoxy]phenyl}-2,3,4,5-tetrahydropyridine], the IC50 is > 100 µM on CYP2D6 (setting [1]) and 22 µM at CYP3A4 (setting [2]).

As to `c1ccc(COc2ccc(OCCCN3CCCCC3)cc2)cc1` [Example 13, 1-{3-[4-(benzyloxy)phenoxy]propyl}piperidine], the IC50 at CYP2D6 (setting [1]) was found to be 23 µM; at CYP3A4 (setting [2]), 16 µM.

On to `O[C@H]1CC[C@H](c2ccc(OCCCN3CCCCC3)cc2)CC1` [Example 65, 1-{3-[trans-4-(4-hydroxycyclohexyl)phenoxy]propyl}piperidine], for which the IC50 on CYP2D6 (setting [1]) and on CYP3A4 (setting [2]) was > 10 µM in each case.

Take `[O-][n+]1ccc(-c2ccc(OCCCN3CCCCC3)cc2)cc1` [Example 53, 4-[4-(3-piperidinopropoxy)phenyl]pyridine 1-oxide]: the IC50 worked out at 64 µM on CYP2D6 (setting [1]) and 57 µM at CYP3A4 (setting [2]).

Take `C=C(C)c1ccc(OCCCN2C[C@@H](C)C[C@H](C)C2)cc1` (relative stereo) [Example 10, trans-1-{3-(4-isopropenylphenoxy)propyl]-3,5-dimethylpiperidine]: the IC50 was 47 µM at CYP2D6 (setting [1]) and 30 µM on CYP3A4 (setting [2]).

As for `COc1ccc(-c2ccc(OCCCN3CCCCC3)cc2)cc1` [Example 25, 1-{3-[(4′-methoxybiphenyl-4-yl)oxy]propyl}piperidine], the IC50 at CYP2D6 (setting [1]) and on CYP3A4 (setting [2]) was > 10 µM each time.

Turning to `c1cc([C@H]2CC[C@H](N3CCCC3)CC2)ccc1OCCCN1CCCCC1` [Example 19, 1-{3-[4-(cis-4-tetramethylenaminocyclohex-1-yl)phenoxy]propyl}piperidine, dioxalate and 1-{3-[4-(trans-4-tetramethylenaminocyclohex-1-yl)phenoxy]propyl}-piperidine, dioxalate], the IC50 on CYP2D6 (setting [1]) is > 10 µM; at CYP3A4 (setting [2]), 42 µM and 48 µM.

As to `C[C@H]1C[C@H](C)CN(CCCOc2ccc(-c3ccccc3)cc2)C1` [Example 23, (3S,5S)-1-{3-[(biphenyl-4-yl)oxy]propyl}-3,5-dimethylpiperidine], the IC50 amounted to 13 µM on CYP2D6 (setting [1]) and 3 µM on CYP3A4 (setting [2]).

Take “1-{3-[4-(cis-4-morpholinocyclohex-1-yl)phenoxy]propyl}piperidine, dihydrochloride and 1-{3-[4-(trans-4-morpholinocyclohex-1-yl)phenoxy]-propyl}piperidine, dihydro-chloride [Example 40]”: the IC50 on CYP2D6 (setting [3]) was > 100 µM; at CYP3A4 (setting [4]), 66 µM.

On to `CC1CCCN(CCCOc2ccc(-c3ccccc3)cc2)C1` (racemic) [Example 26, (RS)-1-{3-[(biphenyl-4-yl)oxy]propyl}-3-methylpiperidine], for which the IC50 at CYP2D6 (setting [1]) came to 14 µM; on CYP3A4 (setting [2]) it was 8 µM.

As to `c1ccc(-c2ccc(OCCCN3CCCC3)cc2)cc1` [Example 21, 1-{3-[(biphenyl-4-yl)oxy]propyl}pyrrolidine], the IC50 on CYP2D6 (setting [1]) and at CYP3A4 (setting [2]) was > 10 µM each time.

In the case of `O[C@H]1CC[C@H](c2ccc(OCCCN3CCCC3)cc2)CC1` [Example 63, 1-{3-[trans-4-(4-hydroxycyclohexyl)phenoxy]propyl}pyrrolidine], the IC50 on CYP2D6 (setting [1]) and at CYP3A4 (setting [2]) was > 10 µM throughout.

Consider `OC1CCC(c2ccc(OCCCN3CCCCC3)cc2)CC1` (stereo not drawn) [Example 60, 1-{3-[4-(4-hydroxycyclohexyl)phenoxy]propyl}piperidine], for which the IC50 at CYP2D6 (setting [1]) and on CYP3A4 (setting [2]) was > 10 µM throughout.

For the compound `C[C@H]1C[C@H](C)CN(CCCOc2ccc([C@H]3CC[C@H](N)CC3)cc2)C1` [Example 49, (3S,5S)-1-{3-[4-(trans-4-aminocyclohex-1-yl)phenoxy]propyl}-3,5-dimethylpiperidine], the IC50 was > 10 µM on CYP2D6 (setting [1]) and 27 µM at CYP3A4 (setting [2]).
